Common to all, as to experiment: biochemical
For assay [1], the target named is CSNK1G1 (CK1 gamma 1) (Homo sapiens, UniProt Q9HCP0). Further details: Invitrogen SelectScreen kinase panel, percent inhibition at 1 uM, ATP at Km. The conditions noted are these: read-out: Invitrogen KSS %Inh at 1 µM. On the procedure:
(§1) The METi and RAFi were screened against kinase panels (SelectScreen, Invitrogen; University of Dundee, Division of Signal Transduction Therapy, UK; Upstate Biotechnology/Millipore, Billerica, MA). In these selectivity assays the concentration of ATP was set to the Km value of ATP for each kinase tested to allow for a relative potency comparison between the various kinases. The compounds were tested at 1 µM final concentration. […] Supplementary file pone.0039653.s002.pdf: Figure S2 Kinase Selectivity Screen of RAFi. (A) Kinase selectivity screen (KSS) performed at University of Dundee (Division of Signal Transduction Therapy). Values in % inhibition of phosphorylation given 1 µM of RAFi compared to control. (B) KSS performed at Invitrogen (Selectscreen Service) compared to control. Values in % inhibition of phosphorylation given 1 µM of RAFi. (C) Cell based dose response kinase inhibition of indicated kinases by RAFi. (PDF) Click here for additional data file.

Assay [2] concerns the target EPHB4 (Homo sapiens, UniProt P54760). Also noted: Invitrogen SelectScreen kinase panel, percent inhibition at 1 uM, ATP at Km. The note with it: read-out: Invitrogen KSS %Inh at 1 µM. On the procedure: as §1
Assay [3] deals with MYLK2 (skMLCK) (Homo sapiens, UniProt Q9H1R3). Also noted: Invitrogen SelectScreen kinase panel, percent inhibition at 1 uM, ATP at Km. The conditions noted are these: read-out: Invitrogen KSS %Inh at 1 µM. On the procedure: as §1
Assay [4] has as its target T1, LYN A (Homo sapiens, UniProt P07948).
T1 construct: isoform A
Further details: Invitrogen SelectScreen kinase panel, percent inhibition at 1 uM, ATP at Km. The note with it: read-out: Invitrogen KSS %Inh at 1 µM. On the procedure: as §1

The target of assay [5] is MAP2K6 (MKK6) (Homo sapiens, UniProt P52564). Further details: Invitrogen SelectScreen kinase panel, percent inhibition at 1 uM, ATP at Km. The note with it: read-out: Invitrogen KSS %Inh at 1 µM. On the procedure: as §1
Sequence of MAP2K6 (MKK6) (P52564 whole entry): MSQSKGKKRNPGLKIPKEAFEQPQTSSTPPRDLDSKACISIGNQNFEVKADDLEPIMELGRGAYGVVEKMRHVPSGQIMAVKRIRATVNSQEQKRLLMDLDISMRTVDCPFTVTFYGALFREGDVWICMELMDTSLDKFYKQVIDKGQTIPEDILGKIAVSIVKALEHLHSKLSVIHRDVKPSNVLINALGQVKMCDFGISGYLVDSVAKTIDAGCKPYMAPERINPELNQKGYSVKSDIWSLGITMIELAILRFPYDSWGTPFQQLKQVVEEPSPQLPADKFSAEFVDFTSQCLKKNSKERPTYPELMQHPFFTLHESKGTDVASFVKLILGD
Assay [6] deals with MARK2 (Homo sapiens, UniProt Q7KZI7). Also noted: Invitrogen SelectScreen kinase panel, percent inhibition at 1 uM, ATP at Km. The conditions noted are these: read-out: Invitrogen KSS %Inh at 1 µM. On the procedure:
as §1

The target in assay [7] is CAMK2A (CaMKII alpha) (Homo sapiens, UniProt Q9UQM7). Further details: Invitrogen SelectScreen kinase panel, percent inhibition at 1 uM, ATP at Km. The conditions noted are these: read-out: Invitrogen KSS %Inh at 1 µM. On the procedure:
as §1

Assay [8] addresses INSRR (IRR) (Homo sapiens, UniProt P14616). Further details: Invitrogen SelectScreen kinase panel, percent inhibition at 1 uM, ATP at Km. The note with it: read-out: Invitrogen KSS %Inh at 1 µM. On the procedure:
as §1

For assay [9], the target named is FLT3 (Homo sapiens, UniProt P36888). Further details: Invitrogen SelectScreen kinase panel, percent inhibition at 1 uM, ATP at Km. The conditions noted are these: read-out: Invitrogen KSS %Inh at 1 µM. On the procedure: as §1
Sequence of FLT3 (P36888 whole entry): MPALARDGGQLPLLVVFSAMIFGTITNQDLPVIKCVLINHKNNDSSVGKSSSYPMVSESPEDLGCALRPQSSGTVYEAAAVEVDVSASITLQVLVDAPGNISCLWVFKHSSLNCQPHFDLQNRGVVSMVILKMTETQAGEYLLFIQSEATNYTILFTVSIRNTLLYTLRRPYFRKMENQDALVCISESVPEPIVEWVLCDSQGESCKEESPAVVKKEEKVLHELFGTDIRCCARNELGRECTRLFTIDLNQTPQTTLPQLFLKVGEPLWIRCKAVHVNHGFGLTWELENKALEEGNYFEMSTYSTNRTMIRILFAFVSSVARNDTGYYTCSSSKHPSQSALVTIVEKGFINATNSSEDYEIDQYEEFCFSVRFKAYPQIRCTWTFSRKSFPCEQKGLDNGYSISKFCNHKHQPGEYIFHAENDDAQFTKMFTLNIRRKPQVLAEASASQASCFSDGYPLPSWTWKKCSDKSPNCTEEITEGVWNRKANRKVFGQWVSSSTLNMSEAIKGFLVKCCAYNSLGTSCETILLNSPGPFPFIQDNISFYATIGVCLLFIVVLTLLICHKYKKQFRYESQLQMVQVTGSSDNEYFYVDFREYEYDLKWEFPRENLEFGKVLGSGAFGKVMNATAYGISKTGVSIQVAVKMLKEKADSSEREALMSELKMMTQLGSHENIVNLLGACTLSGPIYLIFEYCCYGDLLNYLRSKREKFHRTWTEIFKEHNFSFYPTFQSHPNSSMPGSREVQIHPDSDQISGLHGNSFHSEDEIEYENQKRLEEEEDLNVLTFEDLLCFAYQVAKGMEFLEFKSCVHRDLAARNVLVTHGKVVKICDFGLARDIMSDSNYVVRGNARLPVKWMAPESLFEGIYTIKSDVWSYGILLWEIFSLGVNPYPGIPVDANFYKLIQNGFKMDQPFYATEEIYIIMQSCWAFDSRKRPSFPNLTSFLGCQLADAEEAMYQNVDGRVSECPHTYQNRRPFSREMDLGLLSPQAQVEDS
For assay [10], the target named is GSK3B (GSK3 beta) (Homo sapiens, UniProt P49841). Further details: Invitrogen SelectScreen kinase panel, percent inhibition at 1 uM, ATP at Km. The conditions noted are these: read-out: Invitrogen KSS %Inh at 1 µM. On the procedure: as §1
Sequence of GSK3B (GSK3 beta) (P49841 whole entry): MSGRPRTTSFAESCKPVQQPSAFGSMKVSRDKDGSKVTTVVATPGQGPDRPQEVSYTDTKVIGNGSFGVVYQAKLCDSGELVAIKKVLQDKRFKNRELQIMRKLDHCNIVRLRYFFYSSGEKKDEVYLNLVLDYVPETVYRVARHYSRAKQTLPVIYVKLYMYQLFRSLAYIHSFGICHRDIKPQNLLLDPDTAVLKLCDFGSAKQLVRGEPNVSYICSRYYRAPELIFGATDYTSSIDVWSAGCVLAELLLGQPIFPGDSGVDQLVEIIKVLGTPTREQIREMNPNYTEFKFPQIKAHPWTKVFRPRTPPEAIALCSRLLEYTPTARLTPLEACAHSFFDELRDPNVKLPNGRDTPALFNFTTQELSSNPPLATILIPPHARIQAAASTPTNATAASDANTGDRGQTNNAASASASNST
For assay [11], the target named is AKT2 (PKB beta) (Homo sapiens, UniProt P31751). Also noted: Invitrogen SelectScreen kinase panel, percent inhibition at 1 uM, ATP at Km. The conditions noted are these: read-out: Invitrogen KSS %Inh at 1 µM. On the procedure:
as §1

In assay [12] the target is SRC (Homo sapiens, UniProt P12931). Further details: Invitrogen SelectScreen kinase panel, percent inhibition at 1 uM, ATP at Km. The note with it: read-out: Invitrogen KSS %Inh at 1 µM. On the procedure: as §1
Sequence of SRC (P12931 whole entry): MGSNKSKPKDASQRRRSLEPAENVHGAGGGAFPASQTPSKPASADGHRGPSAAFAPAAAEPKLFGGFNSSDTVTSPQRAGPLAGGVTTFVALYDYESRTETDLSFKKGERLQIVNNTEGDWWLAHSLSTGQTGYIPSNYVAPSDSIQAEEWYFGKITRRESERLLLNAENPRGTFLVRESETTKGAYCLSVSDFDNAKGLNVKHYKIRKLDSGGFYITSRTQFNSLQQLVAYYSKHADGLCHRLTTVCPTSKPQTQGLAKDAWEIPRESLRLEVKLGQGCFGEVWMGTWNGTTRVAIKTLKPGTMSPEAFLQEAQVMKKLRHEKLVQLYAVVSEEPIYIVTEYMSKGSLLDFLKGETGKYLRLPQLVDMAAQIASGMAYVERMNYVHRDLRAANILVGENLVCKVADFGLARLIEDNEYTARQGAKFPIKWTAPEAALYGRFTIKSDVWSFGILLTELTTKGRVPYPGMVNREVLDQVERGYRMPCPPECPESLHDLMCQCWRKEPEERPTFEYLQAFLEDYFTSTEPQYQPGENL
Assay [13] deals with STK22B (TSSK2) (Homo sapiens, UniProt Q96PF2). Also noted: Invitrogen SelectScreen kinase panel, percent inhibition at 1 uM, ATP at Km. The note with it: read-out: Invitrogen KSS %Inh at 1 µM. On the procedure:
as §1

Assay [14] deals with MAPK10 (JNK3) (Homo sapiens, UniProt P53779). Also noted: Invitrogen SelectScreen kinase panel, percent inhibition at 1 uM, ATP at Km. The conditions noted are these: read-out: Invitrogen KSS %Inh at 1 µM. On the procedure: as §1
The target in assay [15] is DAPK3 (ZIPK) (Homo sapiens, UniProt O43293). Also noted: Invitrogen SelectScreen kinase panel, percent inhibition at 1 uM, ATP at Km. The note with it: read-out: Invitrogen KSS %Inh at 1 µM. On the procedure:
as §1

In assay [16] the target is STK3 (MST2) (Homo sapiens, UniProt Q13188). Further details: Invitrogen SelectScreen kinase panel, percent inhibition at 1 uM, ATP at Km. The note with it: read-out: Invitrogen KSS %Inh at 1 µM. On the procedure:
as §1

Assay [17] concerns the target FGR (Homo sapiens, UniProt P09769). Also noted: Invitrogen SelectScreen kinase panel, percent inhibition at 1 uM, ATP at Km. The conditions noted are these: read-out: Invitrogen KSS %Inh at 1 µM. On the procedure: as §1
In assay [18] the target is ERBB4 (HER4) (Homo sapiens, UniProt Q15303). Further details: Invitrogen SelectScreen kinase panel, percent inhibition at 1 uM, ATP at Km. The conditions noted are these: read-out: Invitrogen KSS %Inh at 1 µM. On the procedure: as §1
The target of assay [19] is FLT1 (VEGFR1) (Homo sapiens, UniProt P17948). Also noted: Invitrogen SelectScreen kinase panel, percent inhibition at 1 uM, ATP at Km. The note with it: read-out: Invitrogen KSS %Inh at 1 µM. On the procedure:
as §1

Assay [20] deals with ALK (Homo sapiens, UniProt Q9UM73). Also noted: Invitrogen SelectScreen kinase panel, percent inhibition at 1 uM, ATP at Km. The conditions noted are these: read-out: Invitrogen KSS %Inh at 1 µM. On the procedure:
as §1

In assay [21] the target is AXL (Homo sapiens, UniProt P30530). Further details: Invitrogen SelectScreen kinase panel, percent inhibition at 1 uM, ATP at Km. The note with it: read-out: Invitrogen KSS %Inh at 1 µM. On the procedure:
as §1

The target of assay [22] is T2, rat RSK1 (Rattus norvegicus, UniProt Q63531).
T2 construct: gene Rps6ka1
Also noted: University of Dundee kinase panel, percent inhibition of phosphorylation at 1 uM RAFi, ATP at Km. The conditions noted are these: read-out: Dundee KSS %inh at 1 uM. An outline of the steps:
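Commercial kinase panel screens run with ATP at the Km for each kinase. Compounds tested at 1 µM final concentration; values are % inhibition of phosphorylation relative to control.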

Sequence of CSNK1G1 (CK1 gamma 1) (Q9HCP0 whole entry): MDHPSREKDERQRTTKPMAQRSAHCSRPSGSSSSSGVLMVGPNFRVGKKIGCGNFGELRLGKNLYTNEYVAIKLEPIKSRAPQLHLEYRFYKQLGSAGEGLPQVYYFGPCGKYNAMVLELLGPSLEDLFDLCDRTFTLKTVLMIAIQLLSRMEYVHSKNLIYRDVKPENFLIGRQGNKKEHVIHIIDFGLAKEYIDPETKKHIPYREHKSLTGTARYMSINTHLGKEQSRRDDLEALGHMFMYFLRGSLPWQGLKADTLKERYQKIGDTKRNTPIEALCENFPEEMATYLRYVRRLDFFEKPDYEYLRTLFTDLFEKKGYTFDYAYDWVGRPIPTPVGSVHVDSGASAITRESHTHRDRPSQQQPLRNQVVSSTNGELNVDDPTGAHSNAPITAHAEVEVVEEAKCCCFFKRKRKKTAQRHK
Sequence of AKT2 (PKB beta) (P31751 whole entry): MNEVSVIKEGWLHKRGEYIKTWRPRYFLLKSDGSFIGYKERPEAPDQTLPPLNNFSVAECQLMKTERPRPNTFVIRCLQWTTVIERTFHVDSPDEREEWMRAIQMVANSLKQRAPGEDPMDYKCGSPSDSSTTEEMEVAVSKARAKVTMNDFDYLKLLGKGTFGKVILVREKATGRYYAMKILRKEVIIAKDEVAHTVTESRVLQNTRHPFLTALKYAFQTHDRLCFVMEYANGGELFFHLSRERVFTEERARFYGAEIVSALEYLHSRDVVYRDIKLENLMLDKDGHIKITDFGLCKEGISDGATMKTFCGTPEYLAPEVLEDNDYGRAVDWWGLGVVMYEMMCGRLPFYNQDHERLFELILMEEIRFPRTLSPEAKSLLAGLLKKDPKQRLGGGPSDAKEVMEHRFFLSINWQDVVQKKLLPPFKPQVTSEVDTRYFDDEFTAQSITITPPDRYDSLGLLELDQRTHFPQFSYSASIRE
Sequence of STK22B (TSSK2) (Q96PF2 whole entry): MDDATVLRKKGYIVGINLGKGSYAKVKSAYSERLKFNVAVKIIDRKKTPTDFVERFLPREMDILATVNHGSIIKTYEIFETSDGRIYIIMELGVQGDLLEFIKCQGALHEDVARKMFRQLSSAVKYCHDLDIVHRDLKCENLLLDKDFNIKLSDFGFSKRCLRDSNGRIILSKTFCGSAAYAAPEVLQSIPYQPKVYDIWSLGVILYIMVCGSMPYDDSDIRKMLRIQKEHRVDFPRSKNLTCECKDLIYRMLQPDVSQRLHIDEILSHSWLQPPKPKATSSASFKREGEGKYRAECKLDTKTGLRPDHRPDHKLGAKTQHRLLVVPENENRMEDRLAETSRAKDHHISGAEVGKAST
Sequence of MARK2 (Q7KZI7 whole entry): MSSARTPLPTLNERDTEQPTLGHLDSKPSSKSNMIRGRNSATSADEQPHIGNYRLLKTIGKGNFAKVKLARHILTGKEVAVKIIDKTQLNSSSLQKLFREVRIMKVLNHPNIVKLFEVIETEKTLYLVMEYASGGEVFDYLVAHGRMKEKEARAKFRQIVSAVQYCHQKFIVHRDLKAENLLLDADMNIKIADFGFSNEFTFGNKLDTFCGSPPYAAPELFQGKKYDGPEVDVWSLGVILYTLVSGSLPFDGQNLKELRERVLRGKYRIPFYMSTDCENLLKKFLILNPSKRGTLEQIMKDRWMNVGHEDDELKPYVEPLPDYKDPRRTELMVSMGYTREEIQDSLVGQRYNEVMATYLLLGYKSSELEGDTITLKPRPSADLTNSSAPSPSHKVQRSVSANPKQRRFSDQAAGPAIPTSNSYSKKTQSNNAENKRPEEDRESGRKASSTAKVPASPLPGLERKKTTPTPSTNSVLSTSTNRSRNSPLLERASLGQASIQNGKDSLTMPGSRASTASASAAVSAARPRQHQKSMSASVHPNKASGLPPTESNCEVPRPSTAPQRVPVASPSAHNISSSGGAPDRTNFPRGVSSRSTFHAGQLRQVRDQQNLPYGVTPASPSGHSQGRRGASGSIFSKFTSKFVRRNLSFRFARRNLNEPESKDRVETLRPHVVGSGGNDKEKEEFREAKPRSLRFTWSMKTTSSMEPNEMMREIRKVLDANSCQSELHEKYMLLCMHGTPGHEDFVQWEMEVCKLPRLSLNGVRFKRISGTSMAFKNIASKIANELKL
Sequence of STK3 (MST2) (Q13188 whole entry): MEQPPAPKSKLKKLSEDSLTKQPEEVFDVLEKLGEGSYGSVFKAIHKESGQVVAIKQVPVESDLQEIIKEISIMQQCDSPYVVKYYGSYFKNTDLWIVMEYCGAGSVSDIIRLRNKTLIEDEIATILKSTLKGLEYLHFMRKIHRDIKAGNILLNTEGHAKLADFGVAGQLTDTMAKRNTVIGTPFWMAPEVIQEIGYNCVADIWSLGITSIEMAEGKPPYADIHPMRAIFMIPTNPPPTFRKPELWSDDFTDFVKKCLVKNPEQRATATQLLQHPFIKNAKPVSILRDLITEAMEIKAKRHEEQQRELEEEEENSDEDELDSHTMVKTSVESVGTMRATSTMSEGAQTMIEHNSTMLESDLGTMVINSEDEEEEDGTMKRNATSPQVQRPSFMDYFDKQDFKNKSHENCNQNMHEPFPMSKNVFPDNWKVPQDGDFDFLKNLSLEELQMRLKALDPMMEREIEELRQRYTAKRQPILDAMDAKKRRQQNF

`N#CCCNc1nccc(-c2cn(CC(F)F)nc2-c2cnc3[nH]ccc3c2)n1` [RAFi, PF-04880594]: the inhibition at 1 µM in assay [1] was found to be 0%; in assay [2], 2%; in assay [3], 20%; in assay [4], 2%; in assay [5], 12%; in assay [6] it was 9%. The inhibition at 1 µM in assay [7] was -1%; in assay [8] it was 3%; in assay [9] it was 61%; in assay [10], 23%; in assay [11], 6%; in assay [12], 1%. In addition, the inhibition at 1 µM was 2% in [13]; 81% in assay [14]; 5% in assay [15]; 9% in assay [16]; 2% in [17]; 24% in assay [18]. The inhibition at 1 µM was 2% in [19], 23% in assay [20], -1% in assay [21] and 29% in assay [22].

For the origin of these results see article PMC3382171 (PLoS ONE, 2012).
